Laboratory results reported in patent US20250345492A1, “AN ANTIBACTERIAL POLYPEPTIDE COMPOUND, A MEDICAL DEVICE, HYDROGEL AND USE THEREOF” (priority 2020, published 2025).
Ends that are not written are not given here.

Legend:
[1] = system: E. coli (ATCC 25922); assay: Mouse septic peritonitis model, survival; type: in vivo, Kunming mice; conditions: 20 mg/kg intraperitoneally one hour after E. coli inoculation, 7 days of observation
Procedure: The determination of the in vivo antibacterial activity of the antibacterial polypeptide compounds is to reflect the antibacterial activity in vivo by detecting the survival rate of mice infected with bacteria or fungi.
Taking compounds 2, 8, 9, 13 and 15 of the present invention as examples, the in vivo antibacterial effects of the antibacterial polypeptide compounds were analyzed. The mice used in this test were Kunming mice, which were placed in constant-temperature environment (22±1° C.). Simply, 36 Kunming mice (18-22 g of body weight) were randomly divided into 6 groups and intraperitoneally injected with 0.2 ml of 3×10^8 CFU/mL E. coli (ATCC 25922) on Day 1 to establish mouse septic peritonitis model. The mice were administered intraperitoneally one hour after inoculation with the bacteria, and then the compounds 2, 8, 9, 13 and 15 were injected intraperitoneally at a dose of 20 mg/kg of body weight. Polymyxin B (20 mg/kg) was selected as a positive reference control, and a negative control group received intraperitoneal injection of sterile saline. After 7 days of observation, the survival rates of mice in administration groups and control groups were calculated to create survival curves.

[2] = system: E. coli ML-35 (ATCC 43837); assay: Inner membrane permeability, ONPG / β-galactosidase release; type: cell-based; conditions: 1×MIC to 8×MIC, 90 min
Procedure: The effect on the integrity of bacterial […] was determined by determining the release amount of β-galactosidase from E. coli ML-35 (ATCC 43837) with ONPG (o-nitrobenzene-β-D-galactoside), thereby detecting the effect of the compounds on the permeability of E. coli IM.
Taking compounds 2, 8, 9, 13 and 15 of the present invention as examples, the IM permeability of E. coli with the presence of the antibacterial polypeptide compounds was analyzed. E. coli ML-35 cells were washed twice with PBS solution and resuspended in 0.9% sodium chloride solution. […] The cells were detected at 420 nm once every 5 mins using a multifunctional ELISA reader within a 90-min period of time.

[3] = system: mouse mononuclear macrophage RAW264.7; assay: Cytotoxicity, MTT colorimetry; type: cell-based
Procedure: (§1) For cytotoxicity determination, the MTT colorimetry was used to evaluate the effects of the compounds on the proliferation of human cervical cancer cell Hela, human embryonic renal epithelial cell HEK293 and mouse mononuclear macrophage RAW264.7.
(§2) Taking compounds 2, 8, 9, 13 and 15 of the present invention as examples, the cytotoxicity of the antibacterial polypeptide compounds was analyzed. Three cell lines were employed for the present invention, namely human cervical cancer cell Hela, human embryonic renal epithelial cell HEK293 and mouse mononuclear macrophage RAW264.7. Hela cells were cultured in RPMI 1640 medium with 10% newborn calf serum, HEK293 cells and RAW264.7 cells were cultured in DMEM medium with 10% fetal bovine serum. Simply, cells (1×10^4 cells/well) were inoculated to a 96-well plate and incubated in an incubator set to 5% CO2 at 37° C. After 24 hours, compounds of different concentrations were added and incubated in the 5% CO2 incubator. After 24 hours, 20 μL of MTT solution with a concentration of 5 mg/mL was added to each well and incubated for 4 hours. After that, the medium was removed with a pipet, and 150 μL of DMSO added to dissolve the purple-blue formazan crystals. The solution was shaken in an oscillator for 5 mins before detecting the absorbance value at 570 nm using the ELISA reader, and then the survival rate was calculated with the formula: (OD dosing group/OD control group)×100% (n=3).

[4] = system: human embryonic renal epithelial cell HEK293; assay: Cytotoxicity, MTT colorimetry; type: cell-based
Procedure: as §1, §2

[5] = system: human cervical cancer cell Hela; assay: Cytotoxicity, MTT colorimetry; type: cell-based
Procedure: as §1, §2

Substance	survival rate of mice [1]	IM permeability of E. coli [2]	effect on proliferation (inhibitory activity) [3]	effect on proliferation (inhibitory activity) [4]	effect on proliferation (inhibitory activity) [5]
Pro-Phe-Lys-Leu-Ser-Leu-His-Leu-NH2 (PFKLSLHL-NH2) [Compound J-1, reference compound]	about 50%	destroying the integrity of the E. coli IM in a dose-dependent manner			
Pro-Trp-Orn-Leu-Orn-Leu-His-Leu-NH2 (PWXLXLHL; HELM PEPTIDE1{P.W.[Orn].L.[Orn].L.H.L.[am]}$$$$V2.0; N-terminus assumed; SMILES CC(C)C[C@H](NC(=O)[C@H](Cc1c[nH]cn1)NC(=O)[C@H](CC(C)C)NC(=O)[C@H](CCCN)NC(=O)[C@H](CC(C)C)NC(=O)[C@H](CCCN)NC(=O)[C@H](Cc1c[nH]c2ccccc12)NC(=O)[C@@H]1CCCN1)C(N)=O) [Compound 9]		destroying the integrity of the E. coli IM in a dose-dependent manner	no inhibitory activity	no inhibitory activity	no inhibitory activity
